Measured values taken from patent publication US20250230193A1, “CYCLIC COMPOUND HAVING SELECTIVE KRAS INHIBITORY EFFECT ON HRAS AND NRAS” (CHUGAI SEIYAKU KABUSHIKI KAISHA, priority 2022, published 2025).

Legend:
[1] = target: GDP-bound NRAS wild-type protein (Homo sapiens, UniProt P01111); experiment: Binding to NRAS by surface plasmon resonance (SPR), Single Cycle Kinetics; conditions: KD ratio NRAS/KRAS, class symbols
[2] = target: GDP-bound HRAS wild-type protein (Homo sapiens, UniProt P01112); experiment: Binding to HRAS by surface plasmon resonance (SPR), Single Cycle Kinetics; conditions: KD ratio HRAS/KRAS, class symbols
Sequence of GDP-bound HRAS wild-type protein (P01112 whole entry): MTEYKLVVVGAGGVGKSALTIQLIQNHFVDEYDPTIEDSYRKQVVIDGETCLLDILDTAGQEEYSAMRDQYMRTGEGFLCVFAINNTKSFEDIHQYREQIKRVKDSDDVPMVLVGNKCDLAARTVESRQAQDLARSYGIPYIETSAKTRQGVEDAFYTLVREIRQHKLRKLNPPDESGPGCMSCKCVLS

Sequence of GDP-bound NRAS wild-type protein (P01111 whole entry): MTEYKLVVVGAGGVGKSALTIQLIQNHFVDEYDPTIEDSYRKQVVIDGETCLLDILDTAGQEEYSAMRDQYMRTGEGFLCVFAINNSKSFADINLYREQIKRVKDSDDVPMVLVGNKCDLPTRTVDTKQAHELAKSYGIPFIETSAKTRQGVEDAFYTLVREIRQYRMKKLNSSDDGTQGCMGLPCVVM

## CCC(CC)[C@H]1C(=O)N(C)[C@H](C(=O)N(C)C)CC(=O)N(C)[C@@H](COC)C(=O)N[C@@H]([C@@H](C)CC)C(=O)N(C)CC(=O)N(C)[C@H]2C/C=C\CCN(C2=O)[C@@H](Cc2ccc(C(F)(F)F)cc2)C(=O)N(C)CC(=O)N[C@@H](CCc2cc(F)c(C(F)(F)F)c(F)c2)C(=O)N2CC[C@H]2C(=O)NC2(CC(C)(C)C2)C(=O)N1C [PP2918]
[1]
  NRAS/KRAS (ratio of KD value with respect to GDP-bound NRAS wild-type protein to KD value with respect to KRAS): AA (a compound having 20 or more is denoted as AA)
[2]
  HRAS/KRAS (ratio of KD value with respect to GDP-bound HRAS wild-type protein to KD value with respect to KRAS): A (a compound having 10 or more and less than 20 is denoted as A)

## CCC[C@H]1C(=O)N[C@@H]([C@@H](C)CC)C(=O)N(C)CC(=O)N(C)[C@H]2C/C=C\CCN(C2=O)[C@@H](Cc2ccc(C(F)(F)F)cc2)C(=O)N(C)CC(=O)N[C@@H](CCc2ccc(Cl)c(Cl)c2)C(=O)N2CCOC[C@H]2C(=O)NC2(CC(C)(C)C2)C(=O)N(C)[C@@H](C(CC)CC)C(=O)N(C)[C@H](C(=O)N(C)C)CC(=O)N1C [PP2920]
[1]
  NRAS/KRAS (ratio of KD value with respect to GDP-bound NRAS wild-type protein to KD value with respect to KRAS): AA (a compound having 20 or more is denoted as AA)
[2]
  HRAS/KRAS (ratio of KD value with respect to GDP-bound HRAS wild-type protein to KD value with respect to KRAS): A (a compound having 10 or more and less than 20 is denoted as A)

## CCC[C@H]1C(=O)N[C@@H]([C@@H](C)CC)C(=O)N(C)CC(=O)N(C)[C@H]2C/C=C\CCN(C2=O)[C@@H](Cc2ccc(C(F)(F)F)cc2)C(=O)N(C)CC(=O)N[C@@H](CCc2ccc(Cl)c(Cl)c2)C(=O)N2CC[C@H]2C(=O)NC2(CC(C)(C)C2)C(=O)N(C)[C@@H](C(CC)CC)C(=O)N(C)[C@H](C(=O)N(C)C)CC(=O)N1C [PP2921]
[1]
  NRAS/KRAS (ratio of KD value with respect to GDP-bound NRAS wild-type protein to KD value with respect to KRAS): AA (a compound having 20 or more is denoted as AA)
[2]
  HRAS/KRAS (ratio of KD value with respect to GDP-bound HRAS wild-type protein to KD value with respect to KRAS): A (a compound having 10 or more and less than 20 is denoted as A)

## CCC(CC)[C@H]1C(=O)N(C)[C@H](C(=O)N(C)C)CC(=O)N(C)[C@@H](COC)C(=O)N[C@@H]([C@@H](C)CC)C(=O)N(C)CC(=O)N(C)[C@H]2C/C=C\CCN(C2=O)[C@@H](Cc2ccc(C)cc2)C(=O)N(C)CC(=O)N[C@@H](CCc2cc(F)c(C(F)(F)F)c(F)c2)C(=O)N2CCCC[C@H]2C(=O)NC2(CC(C)(C)C2)C(=O)N1C [PP2922]
[1]
  NRAS/KRAS (ratio of KD value with respect to GDP-bound NRAS wild-type protein to KD value with respect to KRAS): AA (a compound having 20 or more is denoted as AA)
[2]
  HRAS/KRAS (ratio of KD value with respect to GDP-bound HRAS wild-type protein to KD value with respect to KRAS): A (a compound having 10 or more and less than 20 is denoted as A)

## CCC[C@H]1C(=O)N[C@@H]([C@@H](C)CC)C(=O)N(C)CC(=O)N(C)[C@H]2C/C=C\CCN(C2=O)[C@@H](Cc2ccc(C(F)(F)F)cc2)C(=O)N(C)CC(=O)N[C@@H](CCc2ccc(C(F)(F)F)c(Cl)c2)C(=O)N2CCCC[C@H]2C(=O)NC2(CC(C)(C)C2)C(=O)N(C)[C@@H](C(CC)CC)C(=O)N(C)[C@H](C(=O)N(C)C)CC(=O)N1C [PP2928]
[1]
  NRAS/KRAS (ratio of KD value with respect to GDP-bound NRAS wild-type protein to KD value with respect to KRAS): AA (a compound having 20 or more is denoted as AA)
[2]
  HRAS/KRAS (ratio of KD value with respect to GDP-bound HRAS wild-type protein to KD value with respect to KRAS): A (a compound having 10 or more and less than 20 is denoted as A)

## CCC[C@H]1C(=O)N[C@@H]([C@@H](C)CC)C(=O)N(C)CC(=O)N(C)[C@H]2C/C=C\CCN(C2=O)[C@@H](Cc2ccc(C(F)(F)F)cc2)C(=O)N(C)CC(=O)N[C@@H](CCc2ccc(C(F)(F)F)c(Cl)c2)C(=O)N2CCOC[C@H]2C(=O)NC2(CC(C)(C)C2)C(=O)N(C)[C@@H](C(CC)CC)C(=O)N(C)[C@H](C(=O)N(C)C)CC(=O)N1C [PP2929]
[1]
  NRAS/KRAS (ratio of KD value with respect to GDP-bound NRAS wild-type protein to KD value with respect to KRAS): AA (a compound having 20 or more is denoted as AA)
[2]
  HRAS/KRAS (ratio of KD value with respect to GDP-bound HRAS wild-type protein to KD value with respect to KRAS): A (a compound having 10 or more and less than 20 is denoted as A)

## CCC(CC)[C@H]1C(=O)N(C)[C@H](C(=O)N(C)C)CC(=O)N(C)[C@@H](COC)C(=O)N[C@@H]([C@@H](C)CC)C(=O)N(C)CC(=O)N(C)[C@H]2C/C=C\CCN(C2=O)[C@@H](Cc2ccc(C)cc2)C(=O)N(C)CC(=O)N[C@@H](CCc2ccc(C(F)(F)F)c(Cl)c2)C(=O)N2CCCC[C@H]2C(=O)NC2(CC(C)(C)C2)C(=O)N1C [PP2931]
[1]
  NRAS/KRAS (ratio of KD value with respect to GDP-bound NRAS wild-type protein to KD value with respect to KRAS): A (a compound having 10 or more and less than 20 is denoted as A)
[2]
  HRAS/KRAS (ratio of KD value with respect to GDP-bound HRAS wild-type protein to KD value with respect to KRAS): A (a compound having 10 or more and less than 20 is denoted as A)

## CCC[C@H]1C(=O)N[C@@H]([C@@H](C)CC)C(=O)N(C)CC(=O)N(C)[C@H]2C/C=C\CCN(C2=O)[C@@H](Cc2ccc(C(F)(F)F)cc2)C(=O)N(C)CC(=O)N[C@@H](CCc2ccc(C(F)(F)F)c(OC)c2)C(=O)N2CCCC[C@H]2C(=O)NC2(CC(C)(C)C2)C(=O)N(C)[C@@H](C(CC)CC)C(=O)N(C)[C@H](C(=O)N(C)C)CC(=O)N1C [PP2934]
[1]
  NRAS/KRAS (ratio of KD value with respect to GDP-bound NRAS wild-type protein to KD value with respect to KRAS): AA (a compound having 20 or more is denoted as AA)
[2]
  HRAS/KRAS (ratio of KD value with respect to GDP-bound HRAS wild-type protein to KD value with respect to KRAS): A (a compound having 10 or more and less than 20 is denoted as A)

## CCC[C@H]1C(=O)N[C@@H]([C@@H](C)CC)C(=O)N(C)CC(=O)N(C)[C@H]2C/C=C\CCN(C2=O)[C@@H](Cc2ccc(C(F)(F)F)cc2)C(=O)N(C)CC(=O)N[C@@H](CCc2ccc(C(F)(F)F)c(OC)c2)C(=O)N2CCOC[C@H]2C(=O)NC2(CC(C)(C)C2)C(=O)N(C)[C@@H](C(CC)CC)C(=O)N(C)[C@H](C(=O)N(C)C)CC(=O)N1C [PP2935]
[1]
  NRAS/KRAS (ratio of KD value with respect to GDP-bound NRAS wild-type protein to KD value with respect to KRAS): A (a compound having 10 or more and less than 20 is denoted as A)
[2]
  HRAS/KRAS (ratio of KD value with respect to GDP-bound HRAS wild-type protein to KD value with respect to KRAS): A (a compound having 10 or more and less than 20 is denoted as A)

## CCC[C@H]1C(=O)N[C@@H]([C@@H](C)CC)C(=O)N(C)CC(=O)N(C)[C@H]2C/C=C\CCN(C2=O)[C@@H](Cc2ccc(C(F)(F)F)cc2)C(=O)N(C)CC(=O)N[C@@H](CCc2ccc(C(F)(F)F)c(OC)c2)C(=O)N2CC[C@H]2C(=O)NC2(CC(C)(C)C2)C(=O)N(C)[C@@H](C(CC)CC)C(=O)N(C)[C@H](C(=O)N(C)C)CC(=O)N1C [PP2936]
[1]
  NRAS/KRAS (ratio of KD value with respect to GDP-bound NRAS wild-type protein to KD value with respect to KRAS): AA (a compound having 20 or more is denoted as AA)
[2]
  HRAS/KRAS (ratio of KD value with respect to GDP-bound HRAS wild-type protein to KD value with respect to KRAS): A (a compound having 10 or more and less than 20 is denoted as A)

## CCC(CC)[C@H]1C(=O)N(C)[C@H](C(=O)N(C)C)CC(=O)N(C)[C@@H](COC)C(=O)N[C@@H]([C@@H](C)CC)C(=O)N(C)CC(=O)N(C)[C@H]2C/C=C\CCN(C2=O)[C@@H](Cc2ccc(C)cc2)C(=O)N(C)CC(=O)N[C@@H](CCc2ccc(C(F)(F)F)c(OC)c2)C(=O)N2CCCC[C@H]2C(=O)NC2(CC(C)(C)C2)C(=O)N1C [PP2937]
[1]
  NRAS/KRAS (ratio of KD value with respect to GDP-bound NRAS wild-type protein to KD value with respect to KRAS): A (a compound having 10 or more and less than 20 is denoted as A)
[2]
  HRAS/KRAS (ratio of KD value with respect to GDP-bound HRAS wild-type protein to KD value with respect to KRAS): A (a compound having 10 or more and less than 20 is denoted as A)

## CCC(CC)[C@H]1C(=O)N(C)[C@H](C(=O)N(C)C)CC(=O)N(C)[C@@H](COC)C(=O)N[C@@H]([C@@H](C)CC)C(=O)N(C)CC(=O)N(C)[C@H]2C/C=C\CCN(C2=O)[C@@H](Cc2ccc(C)cc2)C(=O)N(C)CC(=O)N[C@@H](CCc2ccc(C(F)(F)F)c(OC)c2)C(=O)N2CCOC[C@H]2C(=O)NC2(CC(C)(C)C2)C(=O)N1C [PP2938]
[1]
  NRAS/KRAS (ratio of KD value with respect to GDP-bound NRAS wild-type protein to KD value with respect to KRAS): AA (a compound having 20 or more is denoted as AA)
[2]
  HRAS/KRAS (ratio of KD value with respect to GDP-bound HRAS wild-type protein to KD value with respect to KRAS): A (a compound having 10 or more and less than 20 is denoted as A)

## CCC(CC)[C@H]1C(=O)N(C)[C@H](C(=O)N(C)C)CC(=O)N(C)[C@@H](COC)C(=O)N[C@@H]([C@@H](C)CC)C(=O)N(C)CC(=O)N(C)[C@H]2C/C=C\CCN(C2=O)[C@@H](Cc2ccc(C(F)(F)F)cc2)C(=O)N(C)CC(=O)N[C@@H](CCc2ccc(Cl)c(Cl)c2)C(=O)N2CCOC[C@H]2C(=O)NC2(CC(C)(C)C2)C(=O)N1C [PP2941]
[1]
  NRAS/KRAS (ratio of KD value with respect to GDP-bound NRAS wild-type protein to KD value with respect to KRAS): AA (a compound having 20 or more is denoted as AA)
[2]
  HRAS/KRAS (ratio of KD value with respect to GDP-bound HRAS wild-type protein to KD value with respect to KRAS): A (a compound having 10 or more and less than 20 is denoted as A)

## CCC[C@H]1C(=O)N[C@@H]([C@@H](C)CC)C(=O)N(C)CC(=O)N(C)[C@H]2C/C=C\CCN(C2=O)[C@@H](Cc2ccc(C(F)(F)F)cc2)C(=O)N(C)CC(=O)N[C@@H](CCc2cc(Cl)c3sccc3c2)C(=O)N2C[C@H](OCC)C[C@H]2C(=O)NC2(CC(C)(C)C2)C(=O)N(C)[C@@H](C2CCCC2)C(=O)N(C)[C@H](C(=O)N(C)C)CC(=O)N1C [PP2946]
[1]
  NRAS/KRAS (ratio of KD value with respect to GDP-bound NRAS wild-type protein to KD value with respect to KRAS): A (a compound having 10 or more and less than 20 is denoted as A)
[2]
  HRAS/KRAS (ratio of KD value with respect to GDP-bound HRAS wild-type protein to KD value with respect to KRAS): A (a compound having 10 or more and less than 20 is denoted as A)

## CCC[C@H]1C(=O)N[C@@H]([C@@H](C)CC)C(=O)N(C)CC(=O)N(C)[C@H]2C/C=C\CCN(C2=O)[C@@H](Cc2ccc(C)cc2)C(=O)N(C)CC(=O)N[C@@H](CCc2cc(Cl)c3sccc3c2)C(=O)N2C[C@H](OCC)C[C@H]2C(=O)NC2(CC(C)(C)C2)C(=O)N(C)[C@@H](C2CCCC2)C(=O)N(C)[C@H](C(=O)N(C)C)CC(=O)N1C [PP2947]
[1]
  NRAS/KRAS (ratio of KD value with respect to GDP-bound NRAS wild-type protein to KD value with respect to KRAS): B (a compound having 3 or more and less than 10 is denoted as B)
[2]
  HRAS/KRAS (ratio of KD value with respect to GDP-bound HRAS wild-type protein to KD value with respect to KRAS): B (a compound having 3 or more and less than 10 is denoted as B)

## CCC[C@H]1C(=O)N[C@@H]([C@@H](C)CC)C(=O)N(C)CC(=O)N(C)[C@H]2C/C=C\CCN(C2=O)[C@@H](Cc2ccc(C(F)(F)F)cc2)C(=O)N(C)CC(=O)N[C@@H](CCc2ccc3sc(F)c(C)c3c2)C(=O)N2C[C@H](OCC)C[C@H]2C(=O)NC2(CC(C)(C)C2)C(=O)N(C)[C@@H](C2CCCC2)C(=O)N(C)[C@H](C(=O)N(C)C)CC(=O)N1C [PP2948]
[1]
  NRAS/KRAS (ratio of KD value with respect to GDP-bound NRAS wild-type protein to KD value with respect to KRAS): A (a compound having 10 or more and less than 20 is denoted as A)
[2]
  HRAS/KRAS (ratio of KD value with respect to GDP-bound HRAS wild-type protein to KD value with respect to KRAS): A (a compound having 10 or more and less than 20 is denoted as A)
